Results reported in US10857089B2, “Cosmetic compositions comprising purple coneflower pressed juice” (Symrise AG, priority 2015, dated 2020).

Key:
POMC gene expression = assay: Particle induced POMC gene expression, qRT-PCR in keratinocytes; format: cell-based, human; settings: SRM1650b, control = 1
Procedure: (§1) Gene expression was analyzed via qRT-PCR.
(§2) Ginger root CO2 extract has been dissolved in DMSO and diluted in medium. […] Gene expression was analyzed via qRT-PCR. […] Table 7 compiles the results for ginger root CO2 extract altered POMC and IL-6 gene expression
(§3) Purple coneflower pressed juice has been dissolved directly in medium. […] Gene expression was analyzed via qRT-PCR. […] Table 8 compiles the results for purple coneflower pressed juice altered POMC and IL-6 gene expression
(§4) A mixture of purple coneflower pressed juice and ginger root CO2 extract has been pre-dissolved in DMSO and diluted in medium. […] Gene expression was analyzed via qRT-PCR. […] Table 9 compiles the results for purple coneflower pressed juice altered POMC and IL-6 gene expression

CYP1A1 gene expression [1] = assay: CYP1A1 gene expression after induction with indoor particles, qRT-PCR in keratinocytes; format: cell-based, human; settings: for Induction mean ± SE (CYP1A1): 10 μM, Huber990 1.5 μg/cm2, untreated = 1
Procedure: as §1

IL-6 gene expression = assay: Particle induced IL-6 gene expression, qRT-PCR in keratinocytes; format: cell-based, human; settings: SRM1650b, control = 1
Procedure: as §1, §2, §3, §4

MMP1 gene expression = assay: Particle induced MMP1 gene expression, qRT-PCR in keratinocytes; format: cell-based, human; settings: SRM1650b, control = 1
Procedure: as §1

CYP1A1 gene expression [2] = assay: CYP1A1 gene expression after induction with outdoor particles, qRT-PCR in keratinocytes; settings: for CYP1A1 Induction mean ± SE: NHEK adult, 10 μM, untreated = 1
Procedure: Adult human epidermal keratinocytes were cultured in keratinocyte medium without BPE and without EGF for 24 h prior to addition of model particles (see table 1.1). The model particles were suspended in phosphate buffered saline and were sonicated for 1 min and then directly added to the keratinocytes at 1.5 μg/cm^2. E/Z-2-benzylindene-5,6-dimethoxy-3,3-dimethylindan-1-one (BDDI) has been dissolved in DMSO and diluted in medium. Solutions containing the compound with maximal 0.1% DMSO were applied 2 h prior to treatment with the model particles. Gene expression was analyzed via qRT-PCR. For each gene, a specific PCR primer pair was designed as compiled in Table 2:
Adult human epidermal keratinocytes were cultured in keratinocyte medium without BPE and without EGF for 24 h prior to addition of model particles (see table 1.1). The model particles were suspended in phosphate buffered saline and were sonicated for 1 min and then directly added to the keratinocytes at 1.5 μg/cm^2. Sclareolide has been dissolved in DMSO and diluted in medium. Solutions containing the compound with maximal 0.1% DMSO were applied 2 h prior to treatment with the model particles. Gene expression was analyzed via qRT-PCR. For each gene, a specific PCR primer pair was designed (see Table 2).

E/Z-2-benzylindene-5,6-dimethoxy-3,3-dimethylindan-1-one [BDDI]
POMC 6 h (POMC gene expression; 1 μM): 0.9 ± 0.018 | POMC 6 h (POMC gene expression; 2.5 μM): 1.1 ± 0.02 | POMC 6 h (POMC gene expression; 10 μM): 0.9 ± 0.001 | Induction mean ± SE (CYP1A1) (CYP1A1 gene expression [1]; 6 h): 0.05 ± 0.00 | Induction mean ± SE (CYP1A1) (CYP1A1 gene expression [1]; 24 h): 0.20 ± 0.00 | inhibition of particle induced Cyp1A1 gene expression (in words) (CYP1A1 gene expression [1]; indoor model particles): capable to inhibit | IL-6 6 h (IL-6 gene expression; 1 μM): 0.9 ± 0.067 | IL-6 6 h (IL-6 gene expression; 2.5 μM): 0.6 ± 0.006 | IL-6 6 h (IL-6 gene expression; 10 μM): 0.5 ± 0.01 | MMP1 24 h (MMP1 gene expression; 1 μM): 0.7 ± 0.014 | MMP1 24 h (MMP1 gene expression; 2.5 μM): 0.8 ± 0.016 | MMP1 24 h (MMP1 gene expression; 10 μM): 0.5 ± 0.022 | CYP1A1 Induction mean ± SE (CYP1A1 gene expression [2]; 6 h, SRM1650 1.5 μg/cm2): 0.02 ± 0.00 | CYP1A1 Induction mean ± SE (CYP1A1 gene expression [2]; 6 h, SRM2975 1.5 μg/cm2, particle control 1.03): 0.20 ± 0.00 | CYP1A1 Induction mean ± SE (CYP1A1 gene expression [2]; 24 h, SRM2975 1.5 μg/cm2): 0.01 ± 0.00 | inhibition of particle induced Cyp1A1 gene expression (in words) (CYP1A1 gene expression [2]; outdoor model particles): capable to inhibit
